Measured values: paper PMC9029992, “New α-galactosidase-inhibiting aminohydroxycyclopentanes” (RSC Advances, 2021)
Read-outs that look alike come from different tables or passages of the source.

What was measured:
[1] = target: α-glucosidase from S. cerevisiae (GH 13); set-up: method as in PMID 2825997; conditions: yeast; read-out: Ki α-Glc (yeast); cited from earlier work
[2] = tested on: α-galactosidase from E. coli (GH 36); conditions: cited from earlier work
[3] = target: T1, α-galactosidase from green coffee beans (gcb, GH 27) (Coffea arabica, UniProt Q42656); conditions: cited from earlier work
T1 construct: Green coffee bean α-galactosidase: 50 mM sodium phosphate buffer (pH 7); from tissue; host or cells: green coffee beans

[4] = target: T2, Fabrazyme® (commercial recombinant lysosomal α-galactosidase, GH 27) (Homo sapiens, UniProt P06280); conditions: cited from earlier work
T2 construct: purchased
T2 sequence (P06280 32-429): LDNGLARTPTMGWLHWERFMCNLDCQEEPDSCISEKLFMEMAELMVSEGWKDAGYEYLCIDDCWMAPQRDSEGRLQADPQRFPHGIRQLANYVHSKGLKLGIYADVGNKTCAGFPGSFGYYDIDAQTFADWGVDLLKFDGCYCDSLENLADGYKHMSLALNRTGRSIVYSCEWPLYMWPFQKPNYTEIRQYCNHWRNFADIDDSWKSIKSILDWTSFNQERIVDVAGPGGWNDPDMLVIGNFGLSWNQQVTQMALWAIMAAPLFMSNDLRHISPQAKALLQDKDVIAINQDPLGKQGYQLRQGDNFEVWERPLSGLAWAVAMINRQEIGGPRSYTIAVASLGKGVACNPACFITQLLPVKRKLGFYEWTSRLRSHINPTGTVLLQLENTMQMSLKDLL

[5] = tested on: bovine liver α-galactosidase; set-up: method as in PMID 15858658; conditions: cited from earlier work
β-glucosidase (almonds) = target: β-glucosidase (almonds); set-up: method as in PMID 15064801; conditions: reported in literature, read-out: inhibitory activity against β-glucosidase; cited from earlier work
[6] = target: T3, β-glucosidase/β-galactosidase from Agrobacterium sp. (Abg, GH 1) (Agrobacterium sp., UniProt P12614); assay: Ki determination with Agrobacterium sp. β-glucosidase (Abg); assay type: biochemical; conditions: pH 7, substrate Gal-β-pNP, room temperature; read-out: Ki Abg (β-Glc/β-Gal) (GH 1)
T3 sequence (P12614 1-459): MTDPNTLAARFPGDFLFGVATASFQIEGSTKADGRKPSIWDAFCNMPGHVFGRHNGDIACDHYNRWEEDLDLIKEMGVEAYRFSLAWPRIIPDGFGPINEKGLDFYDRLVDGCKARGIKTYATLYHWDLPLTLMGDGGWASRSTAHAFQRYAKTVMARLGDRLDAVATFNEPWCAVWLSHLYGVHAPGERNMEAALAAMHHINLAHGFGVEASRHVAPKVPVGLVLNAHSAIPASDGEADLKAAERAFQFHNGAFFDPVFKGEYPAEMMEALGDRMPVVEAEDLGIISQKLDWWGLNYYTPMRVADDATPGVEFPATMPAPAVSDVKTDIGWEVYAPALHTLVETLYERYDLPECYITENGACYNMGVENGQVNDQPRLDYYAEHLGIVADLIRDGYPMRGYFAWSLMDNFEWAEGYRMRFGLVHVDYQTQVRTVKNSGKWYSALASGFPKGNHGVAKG
Method: (§1) Kinetic studies were performed at room temperature in an appropriate buffer for each enzyme (specific conditions can be found below). All reactions were performed in half-area 96-well-plates (Corning) and monitored with a Synergy H1 plate reader (BioTek). In each experiment, the appropriate concentration of the enzyme was incubated with different concentrations of the inhibitors for 2–5 minutes before initiating the reaction by the addition of the glycoside substrate. The initial rate was then measured by monitoring the increase in, either absorbance at 405 nm (where the aglycone is either p-nitrophenol (pNP) or 2,4-dinitrophenol (dNP)) or fluorescence at 365/455 nm (where the aglycone is 4-methylumbelliferone (MU)) for up to five minutes. Ki determinations were performed using two different substrate concentrations. For each substrate concentration, a range of three to six inhibitor concentrations was used. Dixon plots (1/v vs. [I]) were constructed to validate the use of competitive inhibition model and to assess the fit of the data. The data were then fit to a competitive inhibition model using non-linear regression analysis with Grafit 7.0.0. (Erithacus Software).
Agrobacterium sp. β-glucosidase:[48,49]

[7] = target: lac Z β-galactosidase from E. coli (GH 2) (Escherichia coli, UniProt P00722); assay: Ki determination with E. coli lac Z β-galactosidase; assay type: biochemical; conditions: pH 7, substrate Gal-β-pNP, room temperature
Method: as §1

[8] = target: T2, Fabrazyme® (commercial recombinant lysosomal α-galactosidase, GH 27); assay: Ki determination with Fabrazyme (acid α-galactosidase); assay type: biochemical; conditions: pH 5.5, substrate Gal-α-dNP, room temperature
Method: as §1

[9] = target: T1, α-galactosidase from green coffee beans (gcb, GH 27); assay: Ki determination with green coffee bean α-galactosidase; assay type: biochemical; conditions: pH 7, substrate Gal-α-MU, room temperature
Method: as §1

[10] = target: α-glucosidase from S. cerevisiae (GH 13); assay: Ki determination with S. cerevisiae α-glucosidase; assay type: biochemical; conditions: pH 7, substrate Glc-α-pNP, room temperature; read-out: Ki S. cer. (α-Glc) (GH 13)
Method: as §1
S. cerevisiae α-glucosidase: 50 mM sodium phosphate buffer (pH 7). Substrate: Glc-α-pNP, Km = 0.75 mM.

[11] = target: T4, recombinant human lysosomal β-glucocerebrosidase (GCase, GH 30) (Homo sapiens, UniProt P04062); assay: Ki determination with GCase (β-glucocerebrosidase); assay type: biochemical; conditions: pH 7, substrate Glc-β-dNP, room temperature
T4 sequence (P04062 40-536): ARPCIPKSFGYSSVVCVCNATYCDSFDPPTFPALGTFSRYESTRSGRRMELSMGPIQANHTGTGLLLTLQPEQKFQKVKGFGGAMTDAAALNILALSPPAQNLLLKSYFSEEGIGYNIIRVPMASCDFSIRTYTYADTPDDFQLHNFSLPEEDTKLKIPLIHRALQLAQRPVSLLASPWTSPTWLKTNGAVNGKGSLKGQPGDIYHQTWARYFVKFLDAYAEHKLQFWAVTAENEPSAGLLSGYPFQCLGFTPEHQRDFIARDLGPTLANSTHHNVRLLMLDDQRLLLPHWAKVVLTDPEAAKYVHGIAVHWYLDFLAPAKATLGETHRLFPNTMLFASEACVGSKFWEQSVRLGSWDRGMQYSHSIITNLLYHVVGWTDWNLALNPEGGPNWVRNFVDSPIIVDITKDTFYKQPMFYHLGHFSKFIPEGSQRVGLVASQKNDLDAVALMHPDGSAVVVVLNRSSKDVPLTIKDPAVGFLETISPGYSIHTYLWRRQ
Method: as §1

[12] = read-out: Ki gcb α-galactosidase

T1 sequence (Q42656 16-378): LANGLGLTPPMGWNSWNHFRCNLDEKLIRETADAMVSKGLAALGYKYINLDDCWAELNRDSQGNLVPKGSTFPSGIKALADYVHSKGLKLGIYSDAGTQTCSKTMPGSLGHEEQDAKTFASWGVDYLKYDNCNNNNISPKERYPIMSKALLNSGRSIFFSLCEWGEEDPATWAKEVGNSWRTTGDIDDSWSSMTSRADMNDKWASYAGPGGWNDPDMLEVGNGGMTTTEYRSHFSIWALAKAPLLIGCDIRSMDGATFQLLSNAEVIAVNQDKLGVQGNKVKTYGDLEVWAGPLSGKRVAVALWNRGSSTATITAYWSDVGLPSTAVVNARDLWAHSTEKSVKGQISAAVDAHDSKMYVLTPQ
Sequence of lac Z β-galactosidase from E. coli (GH 2) (P00722 2-1024 limits assumed): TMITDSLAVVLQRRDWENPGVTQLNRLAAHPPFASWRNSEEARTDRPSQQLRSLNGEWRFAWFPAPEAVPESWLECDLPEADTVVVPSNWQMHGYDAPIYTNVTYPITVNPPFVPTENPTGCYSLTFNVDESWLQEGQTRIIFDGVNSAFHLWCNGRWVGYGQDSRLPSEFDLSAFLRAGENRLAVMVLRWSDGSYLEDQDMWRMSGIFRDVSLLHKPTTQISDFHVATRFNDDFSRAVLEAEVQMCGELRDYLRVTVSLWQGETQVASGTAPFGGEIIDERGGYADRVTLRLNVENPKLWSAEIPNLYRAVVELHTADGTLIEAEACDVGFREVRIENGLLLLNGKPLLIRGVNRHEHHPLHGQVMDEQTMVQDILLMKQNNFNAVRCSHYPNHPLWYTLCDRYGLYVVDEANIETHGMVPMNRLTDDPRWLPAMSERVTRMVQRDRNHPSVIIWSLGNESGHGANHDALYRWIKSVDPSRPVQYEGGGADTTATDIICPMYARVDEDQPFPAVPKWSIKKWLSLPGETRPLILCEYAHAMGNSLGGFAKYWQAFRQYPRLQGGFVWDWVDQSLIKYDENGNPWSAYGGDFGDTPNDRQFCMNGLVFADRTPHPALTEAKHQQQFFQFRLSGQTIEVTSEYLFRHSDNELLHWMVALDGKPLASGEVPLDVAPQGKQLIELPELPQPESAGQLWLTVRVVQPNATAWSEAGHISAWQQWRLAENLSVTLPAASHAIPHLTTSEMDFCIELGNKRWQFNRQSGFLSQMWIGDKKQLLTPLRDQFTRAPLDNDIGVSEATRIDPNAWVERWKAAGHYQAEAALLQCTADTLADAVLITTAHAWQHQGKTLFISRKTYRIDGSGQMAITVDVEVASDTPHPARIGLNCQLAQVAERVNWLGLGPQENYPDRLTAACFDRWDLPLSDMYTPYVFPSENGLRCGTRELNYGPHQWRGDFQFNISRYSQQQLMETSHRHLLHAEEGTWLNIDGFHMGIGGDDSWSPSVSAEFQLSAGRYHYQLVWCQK

OC[C@H]1NC[C@H](O)[C@@H](O)[C@H]1O [compound 1, 1,5-dideoxy-1,5-imino-D-galactitol]
Ki [1]: > 1000 µM | IC50 ([2]; read-out: IC50 α-galactosidase from E. coli): 0.24 µM

OC[C@@H]1C[C@@H](O)[C@@H](O)[C@@H](CO)N1 [compound 2]
IC50 ([3]; read-out: IC50 gcb galactosidase): 0.06 µM | IC50 ([2]; read-out: IC50 E. coli enzyme): 32 µM

OC[C@H]1CNC[C@@H](O)[C@H]1O [compound 3, 4-epi-isofagomine]
IC50 ([3]; read-out: IC50 gcb): 200 µM

CCCCCCN1C[C@@H](O)[C@@H](O)[C@@](F)(CO)C1 [compound 4]
Ki ([4]; read-out: Ki Fabrazyme®): 116 µM | Ki [3, 12]: 0.5 µM

N[C@H]1C[C@H](CO)[C@H](O)[C@H](O)[C@H]1O [compound 5, 4-epi-validamine]
IC50 ([3]; read-out: IC50 gcb): 500 µM | IC50 ([2]; read-out: IC50 E. coli): 890 µM

N[C@@H]1[C@H](O)[C@@H](O)[C@@H](O)[C@]2(CO)C[C@H]12 [compound 6]
Ki ([3]; read-out: Ki gcb): 0.54 µM | IC50 ([2]; read-out: IC50 E. coli): 80 µM

OC[C@H]1NC[C@@H](O)[C@H]1O [compound 7, 1,4-dideoxy-1,4-imino-D-lyxitol]
Ki [3, 12]: 0.13 µM

O=S1(=O)N[C@@H]2[C@H](O)[C@@H](O)[C@@H](O)[C@@H](CO)[C@@H]2O1 [compound 11]
IC50 ([4]; as printed in Fig. 1): 110 µM | Ki ([4]; read-out: Ki Fabrazyme® (α-Gal) (GH 27)): 110 µM

OC[C@@H]1[C@H](O)[C@H](O)[C@@H](O)[C@H]1NCc1ccccc1 [compound 12]
Ki [3, 12]: 0.43 µM | inhibitory activity against bovine liver α-galactosidase [5]: does not show any inhibitory activity | Ki (β-glucosidase (almonds)): 0.51 µM

N[C@@H]1[C@H](O)[C@@H](O)[C@@H](O)[C@H]1CO [compound 22, (1S,2S,3S,4S,5R)-4-Amino-5-(hydroxymethyl)cyclopentane-1,2,3-triol]
Ki [6]: 0.014 ± 0.003 µM | Ki [7]: 200 ± 90 µM | Ki [8]: 9.5 ± 1.9 µM | Ki [9]: 6.7 ± 0.9 µM | Ki [10]: 160 ± 60 µM | Ki [11]: 18 ± 3 µM | Ki ([3]; read-out: Ki gcb (α-Gal) (GH 27) (converted)): 12 µM

CCCCCCN[C@@H]1[C@H](O)[C@@H](O)[C@@H](O)[C@H]1CO [compound 23, (1S,2S,3S,4S,5R)-4-(n-Hexylamino)-5-(hydroxymethyl)cyclopentane-1,2,3-triol]
Ki [6]: 0.013 ± 0.003 µM | Ki [7]: 120 ± 20 µM | Ki [8]: 4.9 ± 0.9 µM | Ki [9]: 0.19 ± 0.05 µM | Ki [10]: 130 ± 40 µM | Ki [11]: 40 ± 8 µM

CCCCCCCCCN[C@@H]1[C@H](O)[C@@H](O)[C@@H](O)[C@H]1CO [compound 24, (1S,2S,3S,4S,5R)-4-(n-Nonylamino)-5-(hydroxymethyl)cyclopentane-1,2,3-triol]
Ki [6]: 0.0037 ± 0.0016 µM | Ki [7]: 23 ± 7 µM | Ki [8]: 0.52 ± 0.21 µM | Ki [9]: 0.25 ± 0.05 µM | Ki [10]: 73 ± 17 µM | Ki [11]: 1.2 ± 0.5 µM

CN(C)c1cccc2c(S(=O)(=O)NCCCCCCN[C@@H]3[C@H](O)[C@@H](O)[C@@H](O)[C@H]3CO)cccc12 [compound 27, 5-(Dimethylamino)-N-(6-(((1S,2S,3S,4S,5R)-2,3,4-trihydroxy-5-(hydroxymethyl)cyclopentyl)amino)hexyl)naphthalene-1-sulfonamide]
Ki [6]: 0.005 ± 0.001 µM | Ki [7]: 7.8 ± 4.6 µM | Ki [8]: 4.4 ± 1.1 µM | Ki [9]: 0.14 ± 0.04 µM | Ki [10]: 16 ± 4 µM | Ki [11]: 0.63 ± 0.09 µM

Cc1c(OCC(F)(F)F)ccnc1C[S+]([O-])c1nc2ccccc2[nH]1 (stereo not shown) [lansoprazole]
IC50 ([3]; read-out: IC50 gcb α-galactosidase): 6.4 µM
